Earlier results, collected in article PMC6243681 (Chemical Science, 2018).

Q: For THRPPMWSPVWP, which “stability in serum / to serum proteases” value is on record?
A: low stability
